Source: paper PMC10424178, “Discovery of 5-Phenylpyrazolopyrimidinone Analogs as Potent Antitrypanosomal Agents with In Vivo Efficacy” (Journal of Medicinal Chemistry, 2023)
Entries after “also recorded” stand apart in the source; their conditions may differ.

Legend:
T. b. brucei [1] = assay: Antitrypanosomal assay, T. brucei Squib 427, resazurin viability; format: cell-based; details: for times more potent than 1 against T. b. brucei: relative to 1
TbrPDEB1 = TbrPDEB1 (Trypanosoma brucei, UniProt Q8WQX9); assay: TbrPDEB1 enzyme assay (PDELight HTS cAMP phosphodiesterase kit); format: biochemical, T. brucei
Chain of TbrPDEB1 (Q8WQX9 entry or part of it): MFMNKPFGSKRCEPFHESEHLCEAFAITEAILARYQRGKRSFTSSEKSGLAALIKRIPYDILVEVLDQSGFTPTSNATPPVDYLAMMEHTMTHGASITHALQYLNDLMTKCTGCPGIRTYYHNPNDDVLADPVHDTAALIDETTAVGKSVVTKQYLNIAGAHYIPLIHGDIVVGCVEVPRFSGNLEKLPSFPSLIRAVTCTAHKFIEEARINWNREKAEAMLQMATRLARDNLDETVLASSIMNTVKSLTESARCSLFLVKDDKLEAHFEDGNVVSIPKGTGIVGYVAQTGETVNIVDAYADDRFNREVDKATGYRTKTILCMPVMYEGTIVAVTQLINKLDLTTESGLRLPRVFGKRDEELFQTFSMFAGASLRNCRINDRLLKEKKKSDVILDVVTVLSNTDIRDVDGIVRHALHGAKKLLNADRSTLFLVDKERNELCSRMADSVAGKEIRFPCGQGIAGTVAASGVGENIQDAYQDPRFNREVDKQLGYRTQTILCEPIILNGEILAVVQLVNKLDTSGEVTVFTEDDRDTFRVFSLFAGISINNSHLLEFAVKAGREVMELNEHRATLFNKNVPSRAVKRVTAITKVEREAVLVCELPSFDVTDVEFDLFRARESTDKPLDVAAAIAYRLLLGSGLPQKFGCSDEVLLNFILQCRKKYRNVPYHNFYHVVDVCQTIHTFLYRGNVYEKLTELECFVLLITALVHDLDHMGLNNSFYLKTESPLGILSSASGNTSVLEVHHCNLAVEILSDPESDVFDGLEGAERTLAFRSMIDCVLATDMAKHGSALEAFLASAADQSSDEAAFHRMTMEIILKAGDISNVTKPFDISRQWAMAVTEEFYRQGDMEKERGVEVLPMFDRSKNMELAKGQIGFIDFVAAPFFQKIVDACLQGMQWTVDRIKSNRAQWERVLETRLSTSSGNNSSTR

PDE5 = PDE5 (Homo sapiens, UniProt O76074); assay: PDE5 inhibition; format: biochemical
T. b. brucei [2] = assay: Acute (stage-I) mouse model of T. b. brucei infection; format: in vivo
human PDE4D2 = human PDE4D2 (Homo sapiens, UniProt Q08499); assay: Eurofins Safety-47 panel, PDE4D2; details: read-out: inhibition of human PDE4D2
Chain of human PDE4D2 (Q08499 303-809): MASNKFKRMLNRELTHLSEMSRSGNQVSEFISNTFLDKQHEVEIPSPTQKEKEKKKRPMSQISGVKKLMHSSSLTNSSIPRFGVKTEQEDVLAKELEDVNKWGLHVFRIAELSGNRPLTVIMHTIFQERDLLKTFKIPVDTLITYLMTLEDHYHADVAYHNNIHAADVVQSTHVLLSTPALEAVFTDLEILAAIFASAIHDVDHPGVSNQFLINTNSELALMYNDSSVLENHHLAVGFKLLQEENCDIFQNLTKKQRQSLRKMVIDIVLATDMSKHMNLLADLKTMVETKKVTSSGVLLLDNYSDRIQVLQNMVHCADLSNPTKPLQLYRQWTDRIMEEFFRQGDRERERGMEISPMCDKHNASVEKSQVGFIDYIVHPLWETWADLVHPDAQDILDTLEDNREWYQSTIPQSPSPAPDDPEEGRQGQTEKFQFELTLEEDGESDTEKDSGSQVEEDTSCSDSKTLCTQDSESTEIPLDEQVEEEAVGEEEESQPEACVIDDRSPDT

CC(C)c1n[nH]c2c(=O)[nH]c(-c3ccc(N4CCN(C)CC4)cc3)nc12 [compound 45, 3-Isopropyl-5-(4-(4-methylpiperazin-1-yl)phenyl)-1,6-dihydro-7H-pyrazolo[4,3-d]pyrimidin-7-one]
IC50 (T. b. brucei [1]; Trypanosoma brucei, T. brucei Squib 427 strain, 72 h drug exposure, highest concentration 64 μM, mean of at least two independent experiments, read-out: T. b. brucei pIC50 (converted)): 20 µM

COc1ccccc1-c1nc2c(C(C)C)n[nH]c2c(=O)[nH]1 [compound 22, 3-Isopropyl-5-(2-methoxyphenyl)-1,6-dihydro-7H-pyrazolo[4,3-d]pyrimidin-7-one]
reduction in potency against T. b. brucei compared with 15 (T. b. brucei [1]; relative to 15): 25 fold

CC(C)c1n[nH]c2c(=O)[nH]c(-c3ccncc3)nc12 [compound 16, 3-Isopropyl-5-(pyridin-4-yl)-1,6-dihydro-7H-pyrazolo[4,3-d]pyrimidin-7-one]
times more potent than 1 against T. b. brucei (T. b. brucei [1]): 16 times

CC(C)c1n[nH]c2c(=O)[nH]c(-c3ccc(F)cc3)nc12 [compound 30, 5-(4-Fluorophenyl)-3-isopropyl-1,6-dihydro-7H-pyrazolo[4,3-d]pyrimidin-7-one]
TbrPDEB1 inhibition pKi (TbrPDEB1): inactive
inhibition at 10 µM (PDE5): 52%
time by which all animals relapsed and succumbed (T. b. brucei [2]; 25 mg/kg b.i.d. for 5 days): ≤ 11 dpi
outcome of treatment (parasitemia / cure) (T. b. brucei [2]; 50 mg/kg PO twice daily for 5 consecutive days, follow-up 60 dpi): all infected mice were cured; also recorded: apparent full clearance of parasitemia; also recorded: complete cure
inhibition at 10 µM (human PDE4D2): 75%

CC(C)c1n[nH]c2c(=O)[nH]c(-c3ccccc3)nc12 [compound 15, 3-Isopropyl-5-phenyl-1,6-dihydro-7H-pyrazolo[4,3-d]pyrimidin-7-one]
times more potent than 1 against T. b. brucei (T. b. brucei [1]): 125 times
